Measurements reported in patent publication US20180263993A1, “METHOD FOR PREVENTING AND/OR TREATING CHRONIC TRAUMATIC ENCEPHALOPATHY-IV” (Eustralis Pharmaceuticals Limited (trading as Pressura …, priority 2013, published 2018).

Tested on: tau phosphorylation
Test: Tau phosphorylation after concussive injury in the rat (phosphorylated tau immunohistology)
Format: in vivo
Conditions: rat concussion model; 1 mg/kg intravenously at 30 min after induction of injury; assessed 3 days after the concussive event; compared with injured and non-injured animals
Description: Note that concussive injury in the rat causes extensive tau phosphorylation (B) by 3 days after the concussive event compared to non-injured animals (A).
Having established that hyperphosphorylated tau accumulates perivascularly following concussive injury, we used an animal model of concussion to investigate whether concussion causes perivascular release of substance P. We developed a rodent model of concussion to replicate the concussive event (Donkin et al., 2004, 7th International Neurotrauma Symposium, pp 75-78, Medimond Publishers, Bologna, Italy) and subsequently determined whether substance P was released after such an event. There was a clear increase in brain perivascular substance P immunoreactivity after the concussive event (FIG. 2).
Having shown that mechanical injury causes release of substance P after concussive injury, we then investigated whether a compound of formula (I) reduces tau hyperphosphorlation after concussive injury. […] Note that concussive injury in the rat causes extensive tau phosphorylation (B) by 3 days after the concussive event compared to non-injured animals (A). […] Thus, administration of a compound of formula (I) prevents tau hyperphosphorylation and thus prevents the development of CTE.

## Cc1ccccc1-c1cc(N2CCOCC2)ncc1N(C)C(=O)C(C)(C)c1cc(C(F)(F)F)cc(C(F)(F)F)c1 [compound of formula (I), 2-[3,5-bis(trifluoromethyl)phenyl]-N,2-dimethyl-N-[4-(2-methylphenyl)-6-morpholin-4-ylpyridin-3-yl]propanamide]
  effect on tau phosphorylation after concussive injury: almost complete inhibition of tau phosphorylation
